Results reported in patent publication US8398759B2, “Environmental friendly anti-microbial adhesion agents for anti-fouling paints and anti-fouling paints containing them” (Biopaint S.R.L., priority 2008, dated 2013).

Assays:
Assay type in all cases: cell-based
[1] = system: mixed populations of biofilmogenic sea bacteria (M1, T1-T5, F1); experiment: Bio-film formation (OD570) in microplates painted with supplemented anti-fouling paints; details: 50 g of agent per kg of paint (E50 FIG. 8; V50 FIG. 9); M1, T1 and T5 populations
Method: (§1) The effect of the anti-microbial-adhesion agent of the invention on microbial adhesion and growth has been estimated by using mixed populations of biofilmogenic sea bacteria isolated from the Tyrrhenian Sea (M1), the Adriatic Sea (T1-T5) and an exhausted aquarium filter (F1).
The effectiveness of paints supplemented with the anti-microbial-adhesion agents of the invention in inhibiting the adherent growth of the sea bacteria used in the previous tests was assessed. The formation of a bio-film (OD570) was estimated by the microplate (24 wells) spectrophotometric assay described above. […]
Parallel assays were carried out by using microplates painted with a commercial anti-fouling product (Veneziani Raffaello bianca racing) and non-painted microplates. […]
The paints to be tested were applied only onto the side surface (corresponding to approximately 8.8 cm^2), avoiding to paint the bottom of the wells. […] The plates were inoculated with a cell suspension at an optical density (measured at 600 nm) of 0.5 absorbance units, kept under static incubation, in the dark, for 5 days at 20° C. 5 Days later, the microplates were drained and the growth of the plankton population was determined by a spectrophotometric assessment of the increase in absorbance of the incubation medium. The detection and quantification of a microbial biofilm formation was performed by a spectrophotometric assay. […]

[2] = system: mixed populations of biofilmogenic sea bacteria (M1, T1-T5, F1); experiment: Bio-film formation (crystal violet, OD570) in 24-well microplates, compounds in the free form
Method: as §1
The tests with the compounds in the free form were carried out by using: • eugenol in a concentration in the range from 0.5 to 4 g/l, solubilized in an organic solvent (methanol); • vanillin in a concentration in the range from 0.1 to 5 g/l; • benzaldehyde derivatives in a concentration of 2 g/l.
The formation of the bio-film was assessed, in an indirect way, by measuring the amount of crystal violet retained by the cells grown adherently.
The tests were performed in 24-well microplates inoculated with sea bacteria from bio-films of cultures grown under static conditions for 2 weeks. The effect of the compounds was determined by culturing the microorganisms (starting OD600=0.5) in synthetic sea water (Tropic Marin Sea Salt; 33 g/l) supplemented with yeast extract (3 g/l) and fungal peptone (5 g/l). After the inoculation, the plates were incubated at 20° C. for 5 days before assessing the formation of a bio-film (OD570) and the growth of plankton (OD600). The bio-film was estimated after staining with crystal violet.
The inhibition of adhesion experiments were carried out in 24-well microplates by using eugenol concentrations comprised between 0.5 and 4 g/l. The eugenol stock solution was obtained by melting 2 ml of the compound into 3 ml of methanol and 5 ml of a 10 M NaOH solution. The control plates were set up by adding the same volume of hydroalcoholic solution without eugenol. The results shown in FIG. 1 were obtained by using the M1 population. The tests were subsequently repeated with all 7 populations, using an eugenol concentration of 0.5 g/l.

[3] = system: plankton growth of sea bacteria populations M1, T1 and T5; experiment: Plankton growth (OD600) in microplates painted with vanillin-supplemented paints; details: paints V50, V100, V200; three populations (FIG. 10)
Method: The paints to be tested were applied only onto the side surface (corresponding to approximately 8.8 cm^2), avoiding to paint the bottom of the wells. The plates, after being painted, were maintained for 2 days at 20° C., in a dry and ventilated environment, before being used for the adhesion assay. The plates were inoculated with a cell suspension at an optical density (measured at 600 nm) of 0.5 absorbance units, kept under static incubation, in the dark, for 5 days at 20° C. 5 Days later, the microplates were drained and the growth of the plankton population was determined by a spectrophotometric assessment of the increase in absorbance of the incubation medium. The detection and quantification of a microbial biofilm formation was performed by a spectrophotometric assay. The biocide release rate under static conditions was calculated by measuring, through high performance liquid chromatography (HPLC), the increases in time of the biocide concentration in the liquid medium. […]
In FIG. 10, the increases in absorbance (OD600) are expressed as relative values compared to non-treated samples (not painted).

Compound | reduced adherent growth of sea bacteria compared to the commercial product [1] | reduction in the bio-film formation ([2]; eugenol 0.5 g/l, free form, 5 days at 20° C., all populations except T3 and F1 (FIG. 2)) | inhibition at 500 µg/mL ([2]; eugenol 0.5 g/l, free form, F1 population (FIG. 2)) [%] | inhibition at 500 µg/mL ([2]; eugenol 0.5 g/l, free form, T3 population (FIG. 2)) [%] | effect of vanillin release on plankton growth (OD600 relative to non-painted samples) [3] | persistence of the inhibition effect on adhesion ([2]; M1 population, 10 days of incubation (FIG. 4)) | concentration at which adhesion of microorganisms to solid surfaces is inhibited ([2]; vanillin tested at 0.1 to 5 g/l, free form, T1, M1, T2, T1-T5, F1 populations (FIG. 3a-5))
C=CCc1ccc(O)c(OC)c1 [eugenol] | 1.2-3.2 fold | about 50% | ~60 | ~15 |  |  | 
COc1cc(C=O)ccc1O [vanillin] | 1.5-15.8 fold |  |  |  | reduced effect on the plankton growth | persists even after 10 days of incubation | above 1 g/l
